inhibition, IC50 and Ki data for two compounds are collected here from ChEMBL document CHEMBL3774336, “Identification of spirooxindole and dibenzoxazepine motifs as potent mineralocorticoid receptor antagonists” (Bioorg Med Chem, 2016).

Data set [1] addresses 5-hydroxytryptamine receptor 2B (Homo sapiens) (UniProt P41595). The data set can be described thus: Inhibition of serotonin 5H2B receptor (unknown origin) at 10 uM.
The next data set concerns the target hERG (KCNH2) (Homo sapiens, UniProt Q12809). Nature of the data set: Inhibition of human ERG (unknown origin) at 10 uM.
The target in data set [2] is T1, Alpha-2A adrenergic receptor (Homo sapiens) (UniProt P08913).
T1 sequence (whole entry): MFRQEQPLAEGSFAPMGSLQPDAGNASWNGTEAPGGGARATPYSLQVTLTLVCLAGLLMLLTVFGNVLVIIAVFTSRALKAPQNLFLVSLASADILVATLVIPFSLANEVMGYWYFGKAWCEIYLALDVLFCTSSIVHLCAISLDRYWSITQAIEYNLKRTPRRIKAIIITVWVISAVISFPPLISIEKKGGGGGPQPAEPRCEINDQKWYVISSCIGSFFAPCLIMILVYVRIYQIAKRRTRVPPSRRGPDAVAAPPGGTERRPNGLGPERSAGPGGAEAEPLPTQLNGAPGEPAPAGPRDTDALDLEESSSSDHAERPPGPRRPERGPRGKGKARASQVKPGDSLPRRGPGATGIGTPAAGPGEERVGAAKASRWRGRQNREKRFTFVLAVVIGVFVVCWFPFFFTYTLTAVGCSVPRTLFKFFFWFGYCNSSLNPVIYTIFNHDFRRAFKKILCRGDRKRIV
The data set can be described thus: Inhibition of adrenergic alpha2A receptor (unknown origin) at 10 uM.

Data set [3] deals with T2, Androgen receptor (Rattus norvegicus) (UniProt P15207).
T2 sequence (whole entry): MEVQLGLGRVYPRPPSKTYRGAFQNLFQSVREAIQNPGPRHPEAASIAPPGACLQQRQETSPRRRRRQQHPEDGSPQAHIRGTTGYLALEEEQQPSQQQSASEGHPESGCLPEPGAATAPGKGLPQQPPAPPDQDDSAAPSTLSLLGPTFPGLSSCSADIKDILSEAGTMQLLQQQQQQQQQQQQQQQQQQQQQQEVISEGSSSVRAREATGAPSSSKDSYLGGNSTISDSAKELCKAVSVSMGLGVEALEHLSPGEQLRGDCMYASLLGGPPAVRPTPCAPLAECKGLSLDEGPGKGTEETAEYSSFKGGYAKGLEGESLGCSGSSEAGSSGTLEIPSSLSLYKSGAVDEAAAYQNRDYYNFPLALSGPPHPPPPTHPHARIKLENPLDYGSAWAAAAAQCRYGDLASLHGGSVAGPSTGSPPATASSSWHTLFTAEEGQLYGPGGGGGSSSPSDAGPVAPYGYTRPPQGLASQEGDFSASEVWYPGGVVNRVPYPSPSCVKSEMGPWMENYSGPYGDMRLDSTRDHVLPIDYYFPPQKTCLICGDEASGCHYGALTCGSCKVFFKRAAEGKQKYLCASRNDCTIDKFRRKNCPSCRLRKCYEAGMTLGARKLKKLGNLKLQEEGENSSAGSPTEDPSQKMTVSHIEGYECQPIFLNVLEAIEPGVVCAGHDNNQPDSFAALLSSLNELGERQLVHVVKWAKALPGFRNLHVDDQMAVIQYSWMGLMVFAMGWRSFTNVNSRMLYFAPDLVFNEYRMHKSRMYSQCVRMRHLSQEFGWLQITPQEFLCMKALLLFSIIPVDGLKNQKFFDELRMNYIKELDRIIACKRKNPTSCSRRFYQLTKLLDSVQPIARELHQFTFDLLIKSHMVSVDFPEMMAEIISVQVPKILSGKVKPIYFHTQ
The data set can be described thus: Inhibition of GST-tagged rat androgen receptor LBD domain expressed in insect cells at 10 uM by Gal4-based fluorescence polarization assay. On the technique in general: Polarisation of emitted light reports the rotation of a fluorescent probe.

For data set [4], the target named is T3, Glucocorticoid receptor (Homo sapiens) (UniProt P04150).
T3 sequence (whole entry): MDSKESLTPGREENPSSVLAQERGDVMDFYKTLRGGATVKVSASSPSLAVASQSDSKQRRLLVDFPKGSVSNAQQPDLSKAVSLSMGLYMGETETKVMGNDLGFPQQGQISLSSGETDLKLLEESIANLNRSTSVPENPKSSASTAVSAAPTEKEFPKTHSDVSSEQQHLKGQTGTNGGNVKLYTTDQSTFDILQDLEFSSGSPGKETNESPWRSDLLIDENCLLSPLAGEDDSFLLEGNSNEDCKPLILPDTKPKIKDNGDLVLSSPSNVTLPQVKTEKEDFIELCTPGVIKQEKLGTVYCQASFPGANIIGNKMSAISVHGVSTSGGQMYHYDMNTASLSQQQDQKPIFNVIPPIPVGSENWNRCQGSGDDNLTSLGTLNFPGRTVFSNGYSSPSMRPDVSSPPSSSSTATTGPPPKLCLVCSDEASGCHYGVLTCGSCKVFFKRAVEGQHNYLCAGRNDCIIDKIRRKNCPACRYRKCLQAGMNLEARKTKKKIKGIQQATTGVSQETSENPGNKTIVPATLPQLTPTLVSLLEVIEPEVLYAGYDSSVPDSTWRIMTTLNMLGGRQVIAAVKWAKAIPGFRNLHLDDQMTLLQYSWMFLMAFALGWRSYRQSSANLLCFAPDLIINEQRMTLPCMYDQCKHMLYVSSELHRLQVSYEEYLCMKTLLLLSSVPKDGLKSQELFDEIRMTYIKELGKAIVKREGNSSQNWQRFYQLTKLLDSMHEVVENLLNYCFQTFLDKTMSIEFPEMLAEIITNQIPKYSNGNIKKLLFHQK
The data set can be described thus: Inhibition of GST-tagged human glucocorticoid receptor LBD domain expressed in insect cells at 10 uM by Gal4-based fluorescence polarization assay.

Data set [5] deals with T4, Mineralocorticoid receptor (Homo sapiens, UniProt P08235, C808S).
In data set [6] the target is T4, Mineralocorticoid receptor. This is another data set of the same source.

T4 sequence (P08235 whole entry C808S): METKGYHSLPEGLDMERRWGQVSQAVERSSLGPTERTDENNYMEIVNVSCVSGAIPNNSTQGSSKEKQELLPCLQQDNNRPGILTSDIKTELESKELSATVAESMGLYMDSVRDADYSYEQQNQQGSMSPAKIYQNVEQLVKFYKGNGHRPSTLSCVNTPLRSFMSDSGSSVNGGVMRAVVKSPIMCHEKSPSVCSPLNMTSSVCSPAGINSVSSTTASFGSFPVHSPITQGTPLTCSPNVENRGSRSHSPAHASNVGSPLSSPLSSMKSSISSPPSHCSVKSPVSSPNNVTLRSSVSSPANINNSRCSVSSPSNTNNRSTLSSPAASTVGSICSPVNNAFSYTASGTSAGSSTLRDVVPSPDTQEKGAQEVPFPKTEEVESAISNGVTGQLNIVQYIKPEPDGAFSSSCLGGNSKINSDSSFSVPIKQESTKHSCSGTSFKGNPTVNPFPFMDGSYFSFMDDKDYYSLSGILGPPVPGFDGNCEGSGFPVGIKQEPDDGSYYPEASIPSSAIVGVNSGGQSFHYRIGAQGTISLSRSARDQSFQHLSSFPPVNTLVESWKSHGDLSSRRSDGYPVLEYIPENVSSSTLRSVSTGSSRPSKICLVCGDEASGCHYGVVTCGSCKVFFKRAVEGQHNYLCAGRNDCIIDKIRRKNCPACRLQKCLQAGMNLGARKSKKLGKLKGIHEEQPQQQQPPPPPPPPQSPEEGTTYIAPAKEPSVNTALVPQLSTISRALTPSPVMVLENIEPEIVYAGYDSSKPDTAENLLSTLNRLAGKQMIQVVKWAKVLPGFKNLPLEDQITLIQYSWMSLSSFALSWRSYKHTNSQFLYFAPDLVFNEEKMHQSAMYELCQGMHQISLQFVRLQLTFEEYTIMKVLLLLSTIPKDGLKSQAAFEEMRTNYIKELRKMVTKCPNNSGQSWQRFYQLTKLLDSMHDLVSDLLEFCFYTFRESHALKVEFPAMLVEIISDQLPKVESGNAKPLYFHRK
Sequence of 5-hydroxytryptamine receptor 2B (Homo sapiens) (P41595 whole entry): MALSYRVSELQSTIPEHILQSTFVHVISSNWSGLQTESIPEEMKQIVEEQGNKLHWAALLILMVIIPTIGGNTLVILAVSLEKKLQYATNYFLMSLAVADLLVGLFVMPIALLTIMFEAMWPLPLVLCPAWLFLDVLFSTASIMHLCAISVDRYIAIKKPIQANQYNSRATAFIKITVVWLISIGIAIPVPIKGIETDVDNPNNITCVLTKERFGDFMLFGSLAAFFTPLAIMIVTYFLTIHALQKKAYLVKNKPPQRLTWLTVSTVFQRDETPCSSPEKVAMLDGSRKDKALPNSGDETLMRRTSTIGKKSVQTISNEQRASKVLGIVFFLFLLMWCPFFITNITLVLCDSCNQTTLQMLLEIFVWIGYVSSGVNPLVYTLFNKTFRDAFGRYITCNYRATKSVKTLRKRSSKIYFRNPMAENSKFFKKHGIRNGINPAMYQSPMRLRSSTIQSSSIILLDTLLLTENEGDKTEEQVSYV
Sequence of hERG (KCNH2) (Q12809 whole entry): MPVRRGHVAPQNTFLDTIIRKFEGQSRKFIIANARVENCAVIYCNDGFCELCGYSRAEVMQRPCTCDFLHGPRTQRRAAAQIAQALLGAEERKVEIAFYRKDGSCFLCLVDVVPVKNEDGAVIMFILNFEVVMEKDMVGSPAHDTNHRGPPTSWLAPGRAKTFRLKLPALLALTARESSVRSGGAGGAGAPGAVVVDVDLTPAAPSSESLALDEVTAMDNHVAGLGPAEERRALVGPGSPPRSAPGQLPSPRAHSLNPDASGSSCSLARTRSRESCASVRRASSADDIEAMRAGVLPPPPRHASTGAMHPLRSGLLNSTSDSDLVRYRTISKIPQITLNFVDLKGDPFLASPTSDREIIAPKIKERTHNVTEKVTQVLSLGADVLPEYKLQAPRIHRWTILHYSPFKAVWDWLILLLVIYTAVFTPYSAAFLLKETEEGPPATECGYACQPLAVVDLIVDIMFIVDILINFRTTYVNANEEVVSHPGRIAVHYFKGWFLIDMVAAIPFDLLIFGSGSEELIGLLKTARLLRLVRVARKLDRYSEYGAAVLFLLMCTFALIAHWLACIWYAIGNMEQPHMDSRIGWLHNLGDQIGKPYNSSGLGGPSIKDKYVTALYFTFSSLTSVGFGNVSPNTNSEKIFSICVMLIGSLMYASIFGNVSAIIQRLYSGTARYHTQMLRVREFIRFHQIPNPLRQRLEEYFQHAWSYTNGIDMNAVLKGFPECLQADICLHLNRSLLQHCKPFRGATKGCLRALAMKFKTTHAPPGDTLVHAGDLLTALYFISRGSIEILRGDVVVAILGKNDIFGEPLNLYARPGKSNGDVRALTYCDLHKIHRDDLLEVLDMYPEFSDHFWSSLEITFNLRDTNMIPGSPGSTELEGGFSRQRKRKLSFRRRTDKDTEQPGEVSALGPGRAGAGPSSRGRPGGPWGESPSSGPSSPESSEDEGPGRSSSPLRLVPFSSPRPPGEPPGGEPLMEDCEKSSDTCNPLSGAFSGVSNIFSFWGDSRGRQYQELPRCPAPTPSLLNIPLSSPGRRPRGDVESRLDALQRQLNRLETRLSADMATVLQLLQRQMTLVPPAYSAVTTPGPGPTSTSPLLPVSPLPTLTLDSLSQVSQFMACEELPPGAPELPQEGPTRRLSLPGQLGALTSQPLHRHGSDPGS

In the case of `CN1CCC2(CC1)C(=O)Nc1cc(/C=C3\c4ccccc4COc4cc(F)ccc43)ccc12`, the inhibition is 87% in data set [1], 100% in data set [2], less than 40% in data set [3] and less than 40% in data set [4]. At hERG (KCNH2), this compound came in with an inhibition at 10 µM of 78%. Further, the IC50 in data set [5] is 19 nM. The affinity in data set [6], expressed as Ki, was 6 nM.

As to `O=C1COc2ccc(/C=C3\c4ccccc4COc4cc(F)ccc43)cc2N1`, the inhibition was 67% in data set [1], 59% in data set [2], 77% in data set [3] and 92% in data set [4]. Besides, the inhibition at 10 µM against hERG (KCNH2) was 26%. The compound further had an IC50 in data set [5] of 2 nM. This compound also yielded a Ki in data set [6] of 2 nM.

The inhibition is the change of the read-out against control, counted positive when it falls. Lower therefore signals a weak effect. In general, IC50 refers to the point on the concentration scale where inhibition reaches its midpoint. In general, Ki refers to the equilibrium dissociation constant of an inhibitor or competing ligand from its target.
